Measured values published in ChEMBL document CHEMBL3885881, “DrugMatrix”.

Species: Rattus norvegicus
Test: DrugMatrix - Regimen: Daily Repeat
Assay type: toxicity, organism-based, Sprague-Dawley
Set-up: regimen Daily Repeat, gender Male, age 6-8 weeks
Conditions: in vivo, po, route oral GAVAGE, […]; for ABSOLUTE BASOPHIL / ABSOLUTE EOSINOPHIL / ABSOLUTE LYMPHOCYTE / ABSOLUTE MONOCYTE / ABSOLUTE SEGMENTED NEUTROPHIL / BASOPHIL / EOSINOPHIL / ERYTHROCYTE COUNT / HEMATOCRIT / LEUKOCYTE COUNT / LYMPHOCYTE / MEAN CORPUSCULAR HEMOGLOBIN / MEAN CORPUSCULAR HEMOGLOBIN CONCENTRATION / MEAN CORPUSCULAR VOLUME / NEUTROPHIL / NUCLEATED RED BLOOD CELLS / PLATELET COUNT / HEMOGLOBIN: tissue Blood; for ALANINE AMINOTRANSFERASE / ALBUMIN / ALKALINE PHOSPHATASE / ASPARTATE AMINOTRANSFERASE / BLOOD UREA NITROGEN / CARBON DIOXIDE / CHLORIDE / CHOLESTEROL / CREATINE PHOSPHOKINASE / CREATININE / LACTATE DEHYDROGENASE / LIPASE / PHOSPHORUS / POTASSIUM / SODIUM / TOTAL BILIRUBIN / URIC ACID: tissue Plasma
[1] = 0 mg/kg, 72 h, dose level Control, time 3 day
[2] = 0 mg/kg, 120 h, dose level Control, time 5 day
[3] = 0 mg/kg, dose level Control, time 28 day
[4] = 10 mg/kg, 72 h, dose level High, time 3 day
[5] = 10 mg/kg, 120 h, dose level High, time 5 day

## O=C(O)Cc1ccccc1Nc1c(Cl)cccc1Cl [DICLOFENAC]
[1]
  ABSOLUTE BASOPHIL: 0 CELLS/uL
  ABSOLUTE EOSINOPHIL: 0 CELLS/uL
  ABSOLUTE LYMPHOCYTE: 8493 CELLS/uL
  ABSOLUTE MONOCYTE: 127 CELLS/uL
  ABSOLUTE SEGMENTED NEUTROPHIL: 896.67 CELLS/uL
  BASOPHIL: 0%
  EOSINOPHIL: 0%
  ERYTHROCYTE COUNT: 5.53 x10E6/uL
  HEMATOCRIT: 34.07%
  LEUKOCYTE COUNT: 9.52 x10E3/uL
  LYMPHOCYTE: 89.17%
  MEAN CORPUSCULAR HEMOGLOBIN: 24.07 pg
  MEAN CORPUSCULAR HEMOGLOBIN CONCENTRATION: 39.03 G/DL
  MEAN CORPUSCULAR VOLUME: 61.62 fL
  NEUTROPHIL: 9.5%
  NUCLEATED RED BLOOD CELLS: 0.17 /100WBC
  PLATELET COUNT: 1054.17 x10E3/uL
  ALANINE AMINOTRANSFERASE: 77.67 u/L
  ALBUMIN: 4.08 G/DL
  ALKALINE PHOSPHATASE: 404.5 u/L
  ASPARTATE AMINOTRANSFERASE: 83.17 u/L
  BLOOD UREA NITROGEN: 14.33 mg/dL
  CARBON DIOXIDE: 33.17 mmol/L
  CHLORIDE: 101 MEQ/L
  CHOLESTEROL: 76.33 mg/dL
  CREATINE PHOSPHOKINASE: 184.5 u/L
  CREATININE: 0.13 mg/dL
  LACTATE DEHYDROGENASE: 130.33 u/L
  LIPASE: 11 u/L
  PHOSPHORUS: 9.27 mg/dL
  POTASSIUM: 6.26 MEQ/L
  SODIUM: 143.57 MEQ/L
  TOTAL BILIRUBIN: 0.18 mg/dL
  URIC ACID: 1.38 mg/dL
[2]
  ABSOLUTE BASOPHIL: 0 CELLS/uL
  ABSOLUTE EOSINOPHIL: 0 CELLS/uL
  ABSOLUTE LYMPHOCYTE: 8546.17 CELLS/uL
  ABSOLUTE MONOCYTE: 49.5 CELLS/uL
  ABSOLUTE SEGMENTED NEUTROPHIL: 554.33 CELLS/uL
  NUCLEATED RED BLOOD CELLS: 0.17 /100WBC
  CARBON DIOXIDE: 33.17 mmol/L
  CREATININE: 0.18 mg/dL
  LACTATE DEHYDROGENASE: 111.5 u/L
  LIPASE: 9.5 u/L
  URIC ACID: 0.78 mg/dL
[3]
  BASOPHIL: 0.42%
  EOSINOPHIL: 0.58%
  ERYTHROCYTE COUNT: 8.06 x10E6/uL
  HEMATOCRIT: 48.44%
  HEMOGLOBIN: 16.34 G/DL
  LEUKOCYTE COUNT: 13.04 x10E3/uL
  LYMPHOCYTE: 85.12%
  MEAN CORPUSCULAR HEMOGLOBIN: 20.26 pg
  MEAN CORPUSCULAR HEMOGLOBIN CONCENTRATION: 33.74 G/DL
  MEAN CORPUSCULAR VOLUME: 60.1 fL
  NEUTROPHIL: 11.28%
  PLATELET COUNT: 1226 x10E3/uL
  ALANINE AMINOTRANSFERASE: 28.6 u/L
  ALBUMIN: 3.94 G/DL
  ALKALINE PHOSPHATASE: 254.6 u/L
  ASPARTATE AMINOTRANSFERASE: 67.8 u/L
  BLOOD UREA NITROGEN: 10.4 mg/dL
  CHLORIDE: 104.6 MEQ/L
  CHOLESTEROL: 57.6 mg/dL
  CREATINE PHOSPHOKINASE: 224.8 u/L
  CREATININE: 0.4 mg/dL
  PHOSPHORUS: 10.66 mg/dL
  POTASSIUM: 6.58 MEQ/L
  SODIUM: 148.6 MEQ/L
  TOTAL BILIRUBIN: 0.24 mg/dL
[4]
  ABSOLUTE BASOPHIL: 0 CELLS/uL
  ABSOLUTE EOSINOPHIL: 0 CELLS/uL
  ABSOLUTE LYMPHOCYTE: 9500.33 CELLS/uL
  ABSOLUTE MONOCYTE: 68 CELLS/uL
  ABSOLUTE SEGMENTED NEUTROPHIL: 1065 CELLS/uL
  BASOPHIL: 0%
  EOSINOPHIL: 0%
  ERYTHROCYTE COUNT: 5.04 x10E6/uL
  HEMATOCRIT: 30.83%
  HEMOGLOBIN: 12.23 G/DL
  LEUKOCYTE COUNT: 10.63 x10E3/uL
  LYMPHOCYTE: 90%
  MEAN CORPUSCULAR HEMOGLOBIN: 24.3 pg
  MEAN CORPUSCULAR HEMOGLOBIN CONCENTRATION: 39.67 G/DL
  MEAN CORPUSCULAR VOLUME: 61.23 fL
  NEUTROPHIL: 9%
  NUCLEATED RED BLOOD CELLS: 0 /100WBC
  PLATELET COUNT: 988.67 x10E3/uL
  ALANINE AMINOTRANSFERASE: 55.67 u/L
  ALBUMIN: 3.43 G/DL
  ALKALINE PHOSPHATASE: 322 u/L
  ASPARTATE AMINOTRANSFERASE: 70.67 u/L
  BLOOD UREA NITROGEN: 11.67 mg/dL
  CARBON DIOXIDE: 33.33 mmol/L
  CHLORIDE: 101 MEQ/L
  CHOLESTEROL: 79.33 mg/dL
  CREATINE PHOSPHOKINASE: 148 u/L
  CREATININE: 0.12 mg/dL
  LACTATE DEHYDROGENASE: 105 u/L
  LIPASE: 9.33 u/L
  PHOSPHORUS: 10 mg/dL
  POTASSIUM: 6.12 MEQ/L
  SODIUM: 145.77 MEQ/L
  TOTAL BILIRUBIN: 0.17 mg/dL
  URIC ACID: 1.47 mg/dL
[5]
  ABSOLUTE BASOPHIL: 0 CELLS/uL
  ABSOLUTE EOSINOPHIL: 0 CELLS/uL
  ABSOLUTE LYMPHOCYTE: 5111.33 CELLS/uL
  ABSOLUTE MONOCYTE: 0 CELLS/uL
  ABSOLUTE SEGMENTED NEUTROPHIL: 1222 CELLS/uL
  BASOPHIL: 0%
  EOSINOPHIL: 0%
  ERYTHROCYTE COUNT: 4.43 x10E6/uL
  HEMATOCRIT: 26.73%
  HEMOGLOBIN: 10.7 G/DL
  LEUKOCYTE COUNT: 6.33 x10E3/uL
  LYMPHOCYTE: 76.67%
  MEAN CORPUSCULAR HEMOGLOBIN: 24.2 pg
  MEAN CORPUSCULAR HEMOGLOBIN CONCENTRATION: 40.03 G/DL
  MEAN CORPUSCULAR VOLUME: 60.47 fL
  NEUTROPHIL: 23.33%
  NUCLEATED RED BLOOD CELLS: 0.67 /100WBC
  PLATELET COUNT: 1253.67 x10E3/uL
  ALANINE AMINOTRANSFERASE: 24 u/L
  ALBUMIN: 2.23 G/DL
  ALKALINE PHOSPHATASE: 221.33 u/L
  ASPARTATE AMINOTRANSFERASE: 56 u/L
  BLOOD UREA NITROGEN: 17.33 mg/dL
  CARBON DIOXIDE: 31.67 mmol/L
